Measurements: patent CN116444420A, “β-catenin/BCL9蛋白蛋白相互作用的小分子抑制剂及其应用” (Shanghai Pharmaceutical Industry Research Institute Co ltd, priority 2021, dated 2023)
Read-outs that look alike come from different tables or passages of the source.

Assays:
[1] = target: T1, hERG potassium channel [hERG钾离子通道] (Homo sapiens, UniProt Q12809); experiment: hERG potassium channel, whole-cell patch clamp (Example 73); format: cell-based
T1 construct: expressed in transfected cells; host or cells: HEK293 (stably transfected)

[2] = target: T2, β-catenin/BCL9 protein-protein [β-catenin/BCL9蛋白-蛋白] (Homo sapiens, UniProt P35222); experiment: β-catenin/BCL9 protein-protein affinity, fluorescence polarisation (Example 71); format: binding; conditions: better than compound c
T2 construct: β-catenin(1-781)
T2 sequence (P35222 1-781): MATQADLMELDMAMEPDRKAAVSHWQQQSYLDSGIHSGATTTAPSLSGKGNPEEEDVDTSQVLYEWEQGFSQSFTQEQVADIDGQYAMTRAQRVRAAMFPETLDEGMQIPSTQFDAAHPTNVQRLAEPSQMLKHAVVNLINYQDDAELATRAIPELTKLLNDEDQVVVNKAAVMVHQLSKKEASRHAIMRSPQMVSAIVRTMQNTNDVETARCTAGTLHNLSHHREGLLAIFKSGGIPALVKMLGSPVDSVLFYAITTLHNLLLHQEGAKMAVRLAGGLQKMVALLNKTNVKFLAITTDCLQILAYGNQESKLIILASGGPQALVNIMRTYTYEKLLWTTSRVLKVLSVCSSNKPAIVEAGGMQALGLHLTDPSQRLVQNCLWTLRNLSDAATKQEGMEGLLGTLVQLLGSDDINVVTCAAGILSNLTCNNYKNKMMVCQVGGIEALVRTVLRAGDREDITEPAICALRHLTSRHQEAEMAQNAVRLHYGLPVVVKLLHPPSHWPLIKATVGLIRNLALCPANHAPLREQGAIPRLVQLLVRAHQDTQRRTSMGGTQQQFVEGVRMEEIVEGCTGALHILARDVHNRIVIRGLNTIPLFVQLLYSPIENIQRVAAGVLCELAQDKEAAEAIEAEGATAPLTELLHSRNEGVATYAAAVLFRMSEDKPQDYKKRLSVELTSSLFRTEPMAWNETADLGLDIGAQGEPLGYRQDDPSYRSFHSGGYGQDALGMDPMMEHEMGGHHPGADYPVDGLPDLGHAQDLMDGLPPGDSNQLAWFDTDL

[3] = Liver microsome metabolic stability (Example 75); format: in vitro ADME; conditions: 0.5 mg/mL liver microsomal protein, 1μM, NADPH, 37℃
[4] = tested on: CT26 colon cancer cells in BALB/c mice [CT26结肠癌细胞]; experiment: In vivo experiment 1: CT26 colon cancer mouse model, II-25 and II-27 (Example 76); conditions: 30mg/kg once daily; for inhibition of tumour growth: after 5 days of dosing
[5] = tested on: HEK293 human normal cells [HEK293人正常细胞]; conditions: 10μM
CT-26 cells = experiment: CCK-8 antiproliferative activity of II-39, CT-26; format: cell-based, human; conditions: 10μM
[6] = tested on: HCT-116, CT-26, SW480, A549, RKO cells [人结肠癌细胞HCT-116、人结肠癌细胞CT-26、人结肠癌细胞SW480、人肺癌细胞A549、人结肠腺癌细胞RKO]; experiment: CCK-8 antiproliferative activity of II-39, cancer cell panel (Example 72, part 2); format: cell-based, human; conditions: 10μM
[7] = tested on: CT26 colon cancer cells in BALB/c mice [CT26结肠癌细胞]; experiment: In vivo experiment 2: CT26 colon cancer mouse model, II-39 (Example 76)
[8] = whole-cell patch clamp, HEK293 cells stably transfected, room temperature, read-out: hERG IC50

T1 sequence (Q12809 whole entry): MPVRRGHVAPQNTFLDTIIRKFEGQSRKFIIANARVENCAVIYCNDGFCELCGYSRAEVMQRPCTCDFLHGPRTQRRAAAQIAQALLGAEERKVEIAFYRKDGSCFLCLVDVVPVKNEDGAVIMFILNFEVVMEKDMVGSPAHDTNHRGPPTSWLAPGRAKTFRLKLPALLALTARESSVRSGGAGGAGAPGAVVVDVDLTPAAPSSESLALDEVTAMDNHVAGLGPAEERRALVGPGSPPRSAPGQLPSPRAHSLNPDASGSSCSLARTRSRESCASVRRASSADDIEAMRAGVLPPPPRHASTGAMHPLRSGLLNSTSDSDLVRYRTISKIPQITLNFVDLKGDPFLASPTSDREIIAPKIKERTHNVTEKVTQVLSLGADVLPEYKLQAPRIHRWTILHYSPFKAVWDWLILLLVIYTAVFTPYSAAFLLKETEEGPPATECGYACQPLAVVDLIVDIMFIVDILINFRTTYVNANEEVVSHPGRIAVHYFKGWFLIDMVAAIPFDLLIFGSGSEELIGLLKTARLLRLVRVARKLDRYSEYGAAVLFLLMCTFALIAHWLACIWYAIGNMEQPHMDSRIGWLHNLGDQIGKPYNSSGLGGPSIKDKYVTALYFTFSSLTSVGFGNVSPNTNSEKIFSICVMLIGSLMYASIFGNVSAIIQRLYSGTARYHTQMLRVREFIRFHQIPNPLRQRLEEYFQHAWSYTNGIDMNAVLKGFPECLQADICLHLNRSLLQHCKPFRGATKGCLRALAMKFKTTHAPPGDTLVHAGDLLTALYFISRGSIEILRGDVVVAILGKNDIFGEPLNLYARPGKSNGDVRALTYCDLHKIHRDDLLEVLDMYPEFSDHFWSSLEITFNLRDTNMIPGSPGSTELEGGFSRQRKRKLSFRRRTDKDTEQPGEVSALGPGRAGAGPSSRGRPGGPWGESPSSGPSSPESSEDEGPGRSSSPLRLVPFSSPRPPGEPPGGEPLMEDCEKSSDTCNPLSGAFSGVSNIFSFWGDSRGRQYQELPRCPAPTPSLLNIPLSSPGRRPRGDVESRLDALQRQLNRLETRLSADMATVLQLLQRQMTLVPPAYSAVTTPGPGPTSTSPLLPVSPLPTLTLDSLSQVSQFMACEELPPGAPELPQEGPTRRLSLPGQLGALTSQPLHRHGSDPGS

CC(C)(Oc1cccc(C2CCCN(C(=O)c3cccc(-c4ccc(F)c(F)c4)c3)C2)c1)C(=O)O (centres unmarked) [化合物II-2, 2-(3-(1-(3',4'-二氟-[1,1'-联苯基]-3-羰基)哌啶-3-基)苯氧基)-2-甲基丙酸]
IC50 [1, 8]: > 10 µM

CC(C)c1ccc(-c2cccc(S(=O)(=O)N3CCCC(c4cccc(OC(C)(C)C(=O)O)c4)C3)c2)cc1 (centres unmarked) [化合物II-13, 2-(3-(1-((4'-异丙基-[1,1'-联苯基]-3-基)磺酰基)哌啶-3-基)苯氧基)-2-甲基丙酸]
affinity activity compared with reference compound c [2]: 亲和活性更优
IC50 [1, 8]: > 10 µM
liver microsome metabolic stability ([3]; Table 4): 肝微粒体代谢稳定

CC(C)(Oc1cccc(C2CCCN(S(=O)(=O)c3cccc(-c4ccsc4)c3)C2)c1)C(=O)O (centres unmarked) [化合物II-14, 2-甲基-2-(3-(1-((3-(噻吩-3-基)苯基)磺酰基)哌啶-3-基)苯氧基)丙酸]
IC50 [1, 8]: > 10 µM

Cc1ccc(-c2cccc(S(=O)(=O)N3CCCC(c4cccc(OC(C)(C)C(=O)N5CCNCC5)c4)C3)c2)cc1C.Cl (centres unmarked) [化合物II-25, 4-(2-(3-(1-((3',4'-二甲基-[1,1'-联苯]-3-基)磺酰基)哌啶-3-基)苯氧基)-2-甲基丙酰基)哌嗪-1-氯化铵]
tolerability / safety [4]: 动物耐受,安全性良好
inhibition of tumour growth [4]: 可显著抑制小鼠体内肿瘤的生长
affinity activity compared with reference compound c [2]: 亲和活性更优
IC50 [1]: > 10 µM

Cc1ccc(-c2cccc(S(=O)(=O)N3CCCC(c4cccc(OC(C)(C)C(=O)NS(=O)(=O)c5ccccc5)c4)C3)c2)cc1C (centres unmarked) [化合物II-27, 2-(3-(1-((3',4'-二甲基-[1,1'-联苯基]-3-基)磺酰基)哌啶-3-基)苯氧基)-2-甲基-N-(苯磺酰基))丙酰胺]
tolerability / safety [4]: 动物耐受,安全性良好
inhibition of tumour growth [4]: 可显著抑制小鼠体内肿瘤的生长
affinity activity compared with reference compound c [2]: 亲和活性更优
IC50 [1, 8]: > 10 µM
liver microsome metabolic stability ([3]; Table 4): 肝微粒体代谢稳定

CC(C)c1ccc(-c2cccc(S(=O)(=O)N3CCCC(c4cccc(OC(C)(C)C(=O)NS(=O)(=O)c5ccccc5)c4)C3)c2)cc1 (centres unmarked) [化合物II-28, 2-(3-(1-((4'-异丙基-[1,1'-联苯基]-3-基)磺酰基)哌啶-3-基)苯氧基)-2-甲基-N-(苯磺酰基)丙酰胺]
affinity activity compared with reference compound c [2]: 亲和活性更优
IC50 [1, 8]: > 10 µM
liver microsome metabolic stability ([3]; Table 4): 肝微粒体代谢稳定

CC(C)c1ccc(-c2cccc(S(=O)(=O)N3CCCC(c4cccc(OC(C)(C)C(=O)NS(=O)(=O)c5ccc(C(F)(F)F)cc5)c4)C3)c2)cc1 (centres unmarked) [化合物II-39, 2-(3-(1-((4'-异丙基-[1,1'-联苯]-3-基)磺酰基)哌啶-3-基(苯氧基)-2-甲基-N-((4-(三氟甲基)苯基)磺酰)丙酰胺]
IC50 [1, 8]: > 10 µM
effect on normal cells [5]: 没有影响
antiproliferative activity compared with ICG-001 (CT-26 cells): 显著的优于阳性对照药ICG-001
liver microsome metabolic stability ([3]; Table 5): 肝微粒体代谢稳定
anti-colon-cancer activity [6]: 表现出较好的抗结肠癌活性
body weight ([7]; II-39 30mg/kg i.p. once daily): 未观察到小鼠体重有明显减轻
tolerability / safety ([7]; II-39 30mg/kg i.p. once daily): 动物耐受,安全性良好
tumour inhibition in combination with PD-1 antibody ([7]; II-39 30mg/kg i.p. once daily + PD-1 antibody 10mg/kg i.p. twice a week): 肿瘤得到进一步的抑制
inhibition of colon cancer growth ([7]; II-39 30mg/kg intraperitoneal once daily): 可以很好的抑制结肠癌的生长
TGI ([7]; combination: II-39 30mg/kg i.p. once daily + PD-1 antibody 10mg/kg i.p. twice a week): 81.1%

CC(C)(Oc1cccc(C2CCCN(C(=O)c3cccc(-c4ccc(F)c(F)c4)c3)C2)c1)C(=O)N1C[C@@H]2C[C@H]1CN2.Cl (stereo partly drawn) [化合物II-66, (1S,4S)-5-(2-(3-(1-(3',4'-二氟-[1,1'-联苯]-3-羰基)哌啶-3-基)苯氧基)-2-甲基丙酰基)-2,5-二氮杂二环[2.2.1]庚烷-2-氯化铵]
affinity activity compared with reference compound c [2]: 亲和活性更优

COc1ccc(S(=O)(=O)NC(=O)C(C)(C)Oc2cccc(C3CCCN(C(=O)c4cccc(-c5ccc(F)c(F)c5)c4)C3)c2)cc1 (centres unmarked) [化合物II-68, 2-(3-(1-(3',4'-二氟-[1,1'-联苯]-3-羰基)哌啶-3-基)苯氧基)-N-((4-甲氧基苯基)磺酰基)-2-甲基丙酰胺]
affinity activity compared with reference compound c [2]: 亲和活性更优
